# How the values were obtained:
# mice = test: Antagonism of oxotremorine induced salivation; format: in vivo; conditions: doses up to 300 mg/kg, p.o.
# Experimental: Eszopiclone was evaluated for antimuscarinic activity in vivo.
# conscious dogs = test: Dose escalation safety study, cardiovascular and respiratory parameters after acute intravenous administration
# Experimental: To establish the safety of eszopiclone, a dose escalation study was carried out. Cardiovascular and respiratory parameters were evaluated in conscious dogs following acute intravenous administration of (R)-, (S)- or racemic zopiclone at three doses (3, 5 and 12 mg/kg).
# [1] = acute intravenous, 3, 5 and 12 mg/kg
smiles,measurement,setting,value
CN1CCN(C(=O)O[C@@H]2c3nccnc3C(=O)N2c2ccc(Cl)cn2)CC1 [(R)-Zopiclone],antagonism of oxotremorine induced salivation,mice,"neither (R)-, (S)-, nor racemic zopiclone significantly antagonized"
same,hemodynamic effect,"conscious dogs; acute intravenous, 12 mg/kg",did not produce a consistent hemodynamic effect
same,"Blood gases and blood chemistries (pH, pCO2, pO2, hematocrit, and lactate)",conscious dogs; [1],remained unaffected
same,cardiotoxicity by electrocardiogram (ECG),conscious dogs; [1],No evidence of cardiotoxicity
